According to PubChem BioAssay (NCI):
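Compound exposure: 48 hours, 5 concentrations, 96-well plates. At the GI50, growth is halved. TGI is the concentration that stops growth completely.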

Tests used:
Experiment in all cases: NCI tumour cell line growth inhibition, 48 h
[1] = system: A498 renal
[2] = system: SF-539 CNS
[3] = system: SN12C renal
[4] = system: NCI-H23 lung
[5] = system: RPMI-8226 leukemia
[6] = system: COLO 205 colon
[7] = system: RXF 393 renal
[8] = system: PC-3 prostate
[9] = system: UACC-257 melanoma
[10] = system: HS 578T breast
[11] = system: SR leukemia
[12] = system: UACC-62 melanoma
[13] = system: IGROV1 ovarian
[14] = system: DU-145 prostate
[15] = system: SK-MEL-5 melanoma
[16] = system: T-47D breast
[17] = system: M14 melanoma
[18] = system: HOP-62 NSCLC
[19] = system: NCI-H522 lung
[20] = system: SF-295 CNS
[21] = system: K-562 leukemia
[22] = system: ACHN renal
[23] = system: NCI-H226 lung
[24] = system: CCRF-CEM leukemia
[25] = system: LOX IMVI melanoma
[26] = system: SNB-19 CNS
[27] = system: HT29 colon
[28] = system: OVCAR-8 ovarian
[29] = system: SW-620 colon
[30] = system: CAKI-1 renal
[31] = system: NCI-H460 lung
[32] = system: A549 NSCLC
[33] = system: NCI/ADR-RES ovarian
[34] = system: TK-10 renal
[35] = system: EKVX NSCLC
[36] = system: UO-31 renal
[37] = system: KM12 colon
[38] = system: MALME-3M melanoma
[39] = system: HCT-116 colon
[40] = system: SF-268 CNS
[41] = system: SK-MEL-2 melanoma
[42] = system: OVCAR-3 ovarian
[43] = system: OVCAR-5 ovarian
[44] = system: MDA-MB-435
[45] = system: U251 CNS
[46] = system: 786-0 renal
[47] = system: HCT-15 colon
[48] = system: MDA-MB-231 breast
[49] = system: HCC-2998 colon
[50] = system: MCF7 breast
[51] = system: SNB-75 CNS
[52] = system: MDA-N
[53] = system: OVCAR-4 ovarian
[54] = system: SK-MEL-28 melanoma
[55] = system: SK-OV-3 ovarian
[56] = system: MOLT-4 leukemia
[57] = system: HOP-92 NSCLC
[58] = system: HL-60(TB) leukemia
[59] = system: BT-549 breast

SMILES: CCn1c(=N)sc2nc3ccccc3n2c1=O
- TGI [1]: > 100 µM
- TGI [2]: > 100 µM
- TGI [3]: > 100 µM
- TGI [4]: > 100 µM
- TGI [5]: > 100 µM
- TGI [6]: > 100 µM
- TGI [7]: > 100 µM
- TGI [8]: > 100 µM
- TGI [9]: > 100 µM
- TGI [10]: > 100 µM
- TGI [11]: > 100 µM
- TGI [12]: > 100 µM
- TGI [13]: > 100 µM
- TGI [14]: > 100 µM
- TGI [15]: > 100 µM
- TGI [16]: > 100 µM
- TGI [17]: > 100 µM
- TGI [18]: > 100 µM
- TGI [19]: > 100 µM
- TGI [20]: > 100 µM
- TGI [21]: > 100 µM
- TGI [22]: > 100 µM
- TGI [23]: > 100 µM
- TGI [24]: > 100 µM
- TGI [25]: > 100 µM
- TGI [26]: > 100 µM
- TGI [27]: > 100 µM
- TGI [28]: > 100 µM
- TGI [29]: > 100 µM
- TGI [30]: > 100 µM
- TGI [31]: > 100 µM
- TGI [32]: > 100 µM
- TGI [33]: > 100 µM
- TGI [34]: > 100 µM
- TGI [35]: > 100 µM
- TGI [36]: 33.3 µM
- TGI [37]: > 100 µM
- TGI [38]: > 100 µM
- TGI [39]: > 100 µM
- TGI [40]: > 100 µM
- TGI [41]: > 100 µM
- TGI [42]: > 100 µM
- TGI [43]: > 100 µM
- TGI [44]: > 100 µM
- TGI [45]: > 100 µM
- TGI [46]: > 100 µM
- TGI [47]: > 100 µM
- TGI [48]: > 100 µM
- TGI [49]: > 100 µM
- TGI [50]: > 100 µM
- TGI [51]: > 100 µM
- TGI [52]: > 100 µM
- TGI [53]: > 100 µM
- TGI [54]: > 100 µM
- TGI [55]: > 100 µM
- TGI [56]: > 100 µM
- TGI [57]: > 100 µM
- TGI [58]: > 100 µM

SMILES: O=C(Nc1ccc2c(c1)OCCO2)C(=O)c1c[nH]c2ccccc12
- GI50 [1]: 0.535 µM
- TGI [1]: 7.08 µM
- GI50 [2]: 1.5 µM
- TGI [2]: 5.32 µM
- GI50 [3]: 2.31 µM
- TGI [3]: > 83 µM
- GI50 [4]: 1.44 µM
- TGI [4]: 26.7 µM
- GI50 [5]: 2.34 µM
- TGI [5]: > 100 µM
- GI50 [6]: 2.72 µM
- TGI [6]: > 100 µM
- GI50 [7]: 2.59 µM
- TGI [7]: 11.1 µM
- GI50 [8]: 2.17 µM
- TGI [8]: > 100 µM
- GI50 [9]: > 23.5 µM
- TGI [9]: > 100 µM
- GI50 [10]: 1.72 µM
- TGI [10]: 22.9 µM
- GI50 [11]: 0.268 µM
- TGI [11]: > 46.7 µM
- GI50 [12]: 1.43 µM
- TGI [12]: > 100 µM
- GI50 [13]: 3.09 µM
- TGI [13]: > 72.4 µM
- GI50 [14]: 1.95 µM
- TGI [14]: 11.8 µM
- GI50 [15]: 1.47 µM
- TGI [15]: > 100 µM
- GI50 [16]: 9.86 µM
- TGI [16]: > 100 µM
- GI50 [17]: 0.839 µM
- TGI [17]: > 100 µM
- GI50 [18]: 2.9 µM
- TGI [18]: 21.2 µM
- GI50 [19]: 0.536 µM
- TGI [19]: 16.3 µM
- GI50 [20]: 1.33 µM
- TGI [20]: 10.6 µM
- GI50 [21]: 0.369 µM
- TGI [21]: > 100 µM
- GI50 [22]: 5.19 µM
- TGI [22]: > 100 µM
- GI50 [23]: 5.03 µM
- TGI [23]: 61.3 µM
- GI50 [24]: 1.08 µM
- TGI [24]: > 100 µM
- GI50 [25]: 1.3 µM
- TGI [25]: > 100 µM
- GI50 [26]: 2.88 µM
- TGI [26]: 79.7 µM
- GI50 [27]: 0.81 µM
- TGI [27]: 3.78 µM
- GI50 [28]: 2.37 µM
- TGI [28]: 35.7 µM
- GI50 [29]: 0.475 µM
- TGI [29]: > 100 µM
- GI50 [30]: 1.68 µM
- TGI [30]: > 100 µM
- GI50 [31]: 1.3 µM
- TGI [31]: > 100 µM
- GI50 [32]: 1.18 µM
- TGI [32]: > 100 µM
- GI50 [33]: 0.375 µM
- TGI [33]: 5.06 µM
- GI50 [34]: 6.75 µM
- TGI [34]: 31.4 µM
- GI50 [35]: 5.37 µM
- TGI [35]: > 100 µM
- GI50 [36]: 5.11 µM
- TGI [36]: > 71.4 µM
- GI50 [37]: 0.469 µM
- TGI [37]: > 100 µM
- GI50 [38]: 10.5 µM
- TGI [38]: > 100 µM
- GI50 [39]: 1.25 µM
- TGI [39]: > 20.5 µM
- GI50 [40]: 1.98 µM
- TGI [40]: 37.5 µM
- GI50 [41]: 2.62 µM
- TGI [41]: 32.9 µM
- GI50 [42]: 1.29 µM
- TGI [42]: 4.68 µM
- GI50 [43]: 3.47 µM
- TGI [43]: > 100 µM
- GI50 [44]: 0.166 µM
- TGI [44]: 0.531 µM
- GI50 [45]: 1.63 µM
- TGI [45]: 15.9 µM
- GI50 [46]: 4.28 µM
- TGI [46]: 44.9 µM
- GI50 [47]: 0.967 µM
- TGI [47]: > 100 µM
- GI50 [48]: 1.37 µM
- TGI [48]: 14.7 µM
- GI50 [49]: 1.37 µM
- TGI [49]: > 100 µM
- GI50 [50]: 1.31 µM
- TGI [50]: > 100 µM
- GI50 [51]: 1.33 µM
- TGI [51]: 5.96 µM
- GI50 [53]: 3.88 µM
- TGI [53]: > 100 µM
- GI50 [54]: 5.6 µM
- TGI [54]: > 100 µM
- GI50 [55]: 1.5 µM
- TGI [55]: 8.62 µM
- GI50 [56]: 0.618 µM
- TGI [56]: > 100 µM
- GI50 [59]: 3.48 µM
- TGI [59]: 38.1 µM
- GI50 [57]: 1.34 µM
- TGI [57]: 11.1 µM
- GI50 [58]: 1.21 µM
- TGI [58]: > 32.9 µM

SMILES: COC[C@H]1C(=O)NCC(=O)N2N=CCC[C@H]2C(=O)N(O)[C@H](C)C(=O)O[C@@H](C(C)C)[C@H](NC(=O)[C@@](C)(O)[C@]2(O)CC[C@@H](CC(C)C)[C@H](C)O2)C(=O)N2NCCC[C@@H]2C(=O)N1O
- TGI [2]: 0.0297 µM
- TGI [4]: 0.0312 µM
- TGI [5]: > 100 µM
- TGI [6]: 0.0319 µM
- TGI [8]: 0.0318 µM
- TGI [9]: 0.0328 µM
- TGI [12]: 0.0322 µM
- TGI [14]: 0.168 µM
- TGI [17]: 0.0355 µM
- TGI [18]: 0.0322 µM
- TGI [20]: 0.0311 µM
- TGI [21]: > 100 µM
- TGI [22]: 0.147 µM
- TGI [25]: 0.0316 µM
- TGI [27]: 0.0307 µM
- TGI [29]: 0.03 µM
- TGI [34]: 0.0322 µM
- TGI [36]: 0.341 µM
- TGI [37]: 0.0276 µM
- TGI [38]: 0.0307 µM
- TGI [41]: 0.0276 µM
- TGI [42]: 0.0362 µM
- TGI [43]: 0.0341 µM
- TGI [45]: 0.03 µM
- TGI [47]: 0.253 µM
- TGI [49]: 0.0279 µM
- TGI [50]: 0.0297 µM
- TGI [51]: < 0.0159 µM
- TGI [52]: 0.0323 µM
- TGI [54]: 0.0315 µM
- TGI [57]: 0.0334 µM
